Source: US9981959B2, “Thiazolyl and oxazolyl urea, thiourea, guanidine and cyanoguanidine compounds as TrkA kinase inhibitors” (Array BioPharma Inc., priority 2012, dated 2018)

Columns and labels:
Test in all cases: KinaseProfiler off-target kinase profiling
Format in all cases: biochemical
Settings in all cases: 10 μM, ATP near Km
[1] = target: T1, KIT (Homo sapiens, UniProt P10721)
T1 construct: purchased Millipore, Inc. (KinaseProfiler service)
Summary of the method: (§1)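 Run at ATP concentrations near each kinase's Km, the profiling used 10 μM compound in duplicate. Reported numbers are percent of control averaged across both runs.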

[2] = target: T2, CDK5/p35 (Homo sapiens, UniProt Q00535)
T2 construct: purchased Millipore, Inc. (KinaseProfiler service)
Summary of the method: as §1

[3] = target: T3, MSSK1 (Homo sapiens, UniProt Q9UPE1)
T3 construct: purchased Millipore, Inc. (KinaseProfiler service)
Summary of the method: as §1

[4] = target: T4, STK33 (Homo sapiens, UniProt Q9BYT3)
T4 construct: purchased Millipore, Inc. (KinaseProfiler service)
Summary of the method: as §1

[5] = target: T5, MINK (Homo sapiens, UniProt Q8N4C8)
T5 construct: purchased Millipore, Inc. (KinaseProfiler service)
Summary of the method: as §1

[6] = target: T6, mTOR (Homo sapiens, UniProt P42345)
T6 construct: purchased Millipore, Inc. (KinaseProfiler service)
Summary of the method: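 ATP near Km for each enzyme; compound 10 μM; n = 2. Data given as POC (average of replicates).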

[7] = target: T7, MKK6 (Homo sapiens, UniProt P52564)
T7 construct: purchased Millipore, Inc. (KinaseProfiler service)
Summary of the method: as §1

[8] = target: T8, TSSK1 (Homo sapiens, UniProt Q9BXA7)
T8 construct: purchased Millipore, Inc. (KinaseProfiler service)
Summary of the method: as §1

[9] = target: T9, IR Activated (Homo sapiens, UniProt P06213)
T9 construct: purchased Millipore, Inc. (KinaseProfiler service)
Summary of the method: as §1

[10] = target: T10, Rsk4 (Homo sapiens, UniProt Q9UK32)
T10 construct: purchased Millipore, Inc. (KinaseProfiler service)
Summary of the method: as §1

[11] = target: T11, CK1gamma3 (Homo sapiens, UniProt Q9Y6M4)
T11 construct: purchased Millipore, Inc. (KinaseProfiler service)
Summary of the method: as §1

[12] = target: T12, ROCK-II (Homo sapiens, UniProt O75116)
T12 construct: purchased Millipore, Inc. (KinaseProfiler service)
Summary of the method: as §1

[13] = target: T13, CK2 (Homo sapiens, UniProt P68400)
T13 construct: purchased Millipore, Inc. (KinaseProfiler service)
Summary of the method: as §1

[14] = target: T14, MRCKbeta (Homo sapiens, UniProt Q9Y5S2)
T14 construct: purchased Millipore, Inc. (KinaseProfiler service)
Summary of the method: as §1

[15] = target: T15, EphA7 (Rattus norvegicus, UniProt P54759)
T15 construct: purchased Millipore, Inc. (KinaseProfiler service)
Summary of the method: as §1

[16] = target: T16, PRK2 (Homo sapiens, UniProt Q16513)
T16 construct: purchased Millipore, Inc. (KinaseProfiler service)
Summary of the method: as §1

[17] = target: T17, GRK7 (Homo sapiens, UniProt Q8WTQ7)
T17 construct: purchased Millipore, Inc. (KinaseProfiler service)
Summary of the method: as §1

[18] = target: T18, Pim-1 (Homo sapiens, UniProt P11309)
T18 construct: purchased Millipore, Inc. (KinaseProfiler service)
Summary of the method: as §1

[19] = target: T19, PKCbetaII (Homo sapiens, UniProt P05771)
T19 construct: purchased Millipore, Inc. (KinaseProfiler service)
Summary of the method: as §1

[20] = target: T20, AMPK(A1/B1/G1) (Homo sapiens, UniProt Q13131)
T20 construct: purchased Millipore (KinaseProfiler service)
Summary of the method: as §1

[21] = target: T21, CAMK4 (Homo sapiens, UniProt Q16566)
T21 construct: purchased Millipore (KinaseProfiler service)
Summary of the method: as §1

[22] = target: T22, EphA2 (Homo sapiens, UniProt P29317)
T22 construct: purchased Millipore, Inc. (KinaseProfiler service)
Summary of the method: as §1

[23] = target: T23, Haspin (Homo sapiens, UniProt Q8TF76)
T23 construct: purchased Millipore, Inc. (KinaseProfiler service)
Summary of the method: as §1

[24] = target: T24, FGFR2 (Homo sapiens, UniProt P21802)
T24 construct: purchased Millipore, Inc. (KinaseProfiler service)
Summary of the method: as §1

[25] = target: T25, Flt3 (Homo sapiens, UniProt P36888)
T25 construct: purchased Millipore, Inc. (KinaseProfiler service)
Summary of the method: as §1

[26] = target: T26, MELK (Homo sapiens, UniProt Q14680)
T26 construct: purchased Millipore, Inc. (KinaseProfiler service)
Summary of the method: as §1

[27] = target: T27, PASK (Homo sapiens, UniProt Q96RG2)
T27 construct: purchased Millipore, Inc. (KinaseProfiler service)
Summary of the method: as §1

[28] = target: T28, WNK2 (Homo sapiens, UniProt Q9Y3S1)
T28 construct: purchased Millipore, Inc. (KinaseProfiler service)
Summary of the method: as §1

[29] = target: T29, EphA3 (Homo sapiens, UniProt P29320)
T29 construct: purchased Millipore, Inc. (KinaseProfiler service)
Summary of the method: as §1

[30] = target: T30, MAPKAP-K2 (Homo sapiens, UniProt P49137)
T30 construct: purchased Millipore, Inc. (KinaseProfiler service)
Summary of the method: as §1

[31] = target: T31, CAMK2d (Homo sapiens, UniProt Q13557)
T31 construct: purchased Millipore (KinaseProfiler service)
Summary of the method: as §1

[32] = target: T32, eEF-2K (Homo sapiens, UniProt O00418)
T32 construct: purchased Millipore, Inc. (KinaseProfiler service)
Summary of the method: as §1

[33] = target: T33, BrSK1 (Homo sapiens, UniProt Q8TDC3)
T33 construct: purchased Millipore (KinaseProfiler service)
Summary of the method: as §1

[34] = target: T34, Plk2 (Homo sapiens, UniProt Q9NYY3)
T34 construct: purchased Millipore, Inc. (KinaseProfiler service)
Summary of the method: as §1

[35] = target: T35, CAMK1d (Homo sapiens, UniProt Q8IU85)
T35 construct: purchased Millipore (KinaseProfiler service)
Summary of the method: as §1

[36] = target: T36, EphA4 (Homo sapiens, UniProt P54764)
T36 construct: purchased Millipore, Inc. (KinaseProfiler service)
Summary of the method: as §1

[37] = target: T37, KDR (Homo sapiens, UniProt P35968)
T37 construct: purchased Millipore, Inc. (KinaseProfiler service)
Summary of the method: as §1

[38] = target: T38, TNK2 (Homo sapiens, UniProt Q07912)
T38 construct: purchased Millipore, Inc. (KinaseProfiler service)
Summary of the method: as §1

[39] = target: T39, LIMK1 (Homo sapiens, UniProt P53667)
T39 construct: purchased Millipore, Inc. (KinaseProfiler service)
Summary of the method: as §1

[40] = target: T40, FGFR3 (Homo sapiens, UniProt P22607)
T40 construct: purchased Millipore, Inc. (KinaseProfiler service)
Summary of the method: as §1

[41] = target: T41, EphB4 (Homo sapiens, UniProt P54760)
T41 construct: purchased Millipore, Inc. (KinaseProfiler service)
Summary of the method: as §1

T40 sequence (P22607 23-806): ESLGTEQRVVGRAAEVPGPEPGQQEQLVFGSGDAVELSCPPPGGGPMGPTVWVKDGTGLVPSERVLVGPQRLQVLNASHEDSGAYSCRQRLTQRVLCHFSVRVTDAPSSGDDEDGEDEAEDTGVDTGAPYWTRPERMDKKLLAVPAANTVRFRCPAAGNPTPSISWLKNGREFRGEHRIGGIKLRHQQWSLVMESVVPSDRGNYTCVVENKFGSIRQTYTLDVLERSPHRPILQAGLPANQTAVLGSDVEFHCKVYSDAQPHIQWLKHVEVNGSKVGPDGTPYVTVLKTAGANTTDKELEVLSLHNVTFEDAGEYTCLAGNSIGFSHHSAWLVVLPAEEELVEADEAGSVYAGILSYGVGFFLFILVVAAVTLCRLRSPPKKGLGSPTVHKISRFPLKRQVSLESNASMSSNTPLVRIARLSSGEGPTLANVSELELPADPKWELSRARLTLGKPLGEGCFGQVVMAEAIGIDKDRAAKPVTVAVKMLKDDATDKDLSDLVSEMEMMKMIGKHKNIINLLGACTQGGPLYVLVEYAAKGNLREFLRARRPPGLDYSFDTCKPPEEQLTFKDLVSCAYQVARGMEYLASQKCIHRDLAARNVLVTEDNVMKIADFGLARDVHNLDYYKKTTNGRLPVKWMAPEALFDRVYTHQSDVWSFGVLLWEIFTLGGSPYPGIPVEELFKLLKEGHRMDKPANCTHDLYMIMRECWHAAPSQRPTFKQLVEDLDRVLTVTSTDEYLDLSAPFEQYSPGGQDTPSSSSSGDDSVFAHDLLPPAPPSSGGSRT
T39 sequence (P53667 whole entry): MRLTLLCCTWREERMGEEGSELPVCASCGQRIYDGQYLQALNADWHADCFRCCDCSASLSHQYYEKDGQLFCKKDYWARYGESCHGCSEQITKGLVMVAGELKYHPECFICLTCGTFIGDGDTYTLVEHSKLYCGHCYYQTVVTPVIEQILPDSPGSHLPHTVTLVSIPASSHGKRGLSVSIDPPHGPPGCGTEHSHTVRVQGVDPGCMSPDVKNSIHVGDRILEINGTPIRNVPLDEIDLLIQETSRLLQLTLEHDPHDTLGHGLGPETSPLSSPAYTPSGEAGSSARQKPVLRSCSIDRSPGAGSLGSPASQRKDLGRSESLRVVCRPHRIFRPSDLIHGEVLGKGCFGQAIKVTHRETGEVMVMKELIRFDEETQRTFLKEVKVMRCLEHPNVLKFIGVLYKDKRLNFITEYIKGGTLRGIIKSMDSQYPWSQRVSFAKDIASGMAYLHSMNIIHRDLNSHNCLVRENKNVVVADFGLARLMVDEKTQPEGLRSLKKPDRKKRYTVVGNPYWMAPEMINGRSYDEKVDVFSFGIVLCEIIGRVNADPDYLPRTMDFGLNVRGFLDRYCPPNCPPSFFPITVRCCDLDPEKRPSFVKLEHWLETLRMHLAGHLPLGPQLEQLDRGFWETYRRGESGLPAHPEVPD
T37 sequence (P35968 20-1356): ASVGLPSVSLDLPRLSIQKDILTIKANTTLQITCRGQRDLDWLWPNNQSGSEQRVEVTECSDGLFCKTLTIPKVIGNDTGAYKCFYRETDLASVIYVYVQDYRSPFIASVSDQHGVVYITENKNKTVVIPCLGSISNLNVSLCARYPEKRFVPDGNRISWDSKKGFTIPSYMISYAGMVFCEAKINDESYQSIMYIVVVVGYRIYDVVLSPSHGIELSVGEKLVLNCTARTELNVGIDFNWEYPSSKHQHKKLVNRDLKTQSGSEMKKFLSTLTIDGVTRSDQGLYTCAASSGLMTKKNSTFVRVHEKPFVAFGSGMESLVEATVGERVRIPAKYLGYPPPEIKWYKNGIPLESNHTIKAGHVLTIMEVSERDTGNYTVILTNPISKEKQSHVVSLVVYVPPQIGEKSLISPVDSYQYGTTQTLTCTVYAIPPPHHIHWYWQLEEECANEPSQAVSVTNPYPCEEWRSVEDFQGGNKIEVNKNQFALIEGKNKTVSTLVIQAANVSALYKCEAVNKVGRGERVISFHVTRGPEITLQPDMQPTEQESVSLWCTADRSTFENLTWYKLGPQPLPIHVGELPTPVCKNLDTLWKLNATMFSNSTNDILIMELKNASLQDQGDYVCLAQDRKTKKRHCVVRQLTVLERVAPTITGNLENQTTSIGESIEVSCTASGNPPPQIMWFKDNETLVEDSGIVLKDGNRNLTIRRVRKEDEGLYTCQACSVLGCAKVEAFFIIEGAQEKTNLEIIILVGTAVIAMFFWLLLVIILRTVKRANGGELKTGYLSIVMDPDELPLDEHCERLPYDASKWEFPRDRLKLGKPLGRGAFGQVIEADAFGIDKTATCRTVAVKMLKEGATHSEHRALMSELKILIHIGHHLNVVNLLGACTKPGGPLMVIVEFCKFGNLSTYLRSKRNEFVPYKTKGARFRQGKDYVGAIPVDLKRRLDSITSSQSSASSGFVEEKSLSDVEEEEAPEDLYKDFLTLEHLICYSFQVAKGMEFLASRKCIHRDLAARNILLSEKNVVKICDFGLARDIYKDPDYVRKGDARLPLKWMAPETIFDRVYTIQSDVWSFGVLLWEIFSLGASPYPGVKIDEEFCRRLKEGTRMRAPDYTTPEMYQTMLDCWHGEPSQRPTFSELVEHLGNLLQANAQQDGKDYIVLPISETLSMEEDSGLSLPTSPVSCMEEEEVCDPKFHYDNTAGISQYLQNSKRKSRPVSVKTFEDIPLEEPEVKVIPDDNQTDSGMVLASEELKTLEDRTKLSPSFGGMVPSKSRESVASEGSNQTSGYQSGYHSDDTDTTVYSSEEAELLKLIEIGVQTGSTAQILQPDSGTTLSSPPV
T13 sequence (P68400 whole entry): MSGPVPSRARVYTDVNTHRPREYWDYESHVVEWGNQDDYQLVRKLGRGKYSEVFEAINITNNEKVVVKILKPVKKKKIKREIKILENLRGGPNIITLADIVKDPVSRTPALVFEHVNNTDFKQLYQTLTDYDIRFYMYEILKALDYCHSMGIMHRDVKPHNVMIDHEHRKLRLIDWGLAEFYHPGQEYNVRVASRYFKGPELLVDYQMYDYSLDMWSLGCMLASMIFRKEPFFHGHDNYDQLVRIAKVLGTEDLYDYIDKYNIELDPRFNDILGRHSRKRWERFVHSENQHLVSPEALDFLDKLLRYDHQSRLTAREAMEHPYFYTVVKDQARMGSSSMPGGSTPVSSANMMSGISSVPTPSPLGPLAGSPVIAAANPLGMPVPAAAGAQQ
T13 sequence (P67870 whole entry partner): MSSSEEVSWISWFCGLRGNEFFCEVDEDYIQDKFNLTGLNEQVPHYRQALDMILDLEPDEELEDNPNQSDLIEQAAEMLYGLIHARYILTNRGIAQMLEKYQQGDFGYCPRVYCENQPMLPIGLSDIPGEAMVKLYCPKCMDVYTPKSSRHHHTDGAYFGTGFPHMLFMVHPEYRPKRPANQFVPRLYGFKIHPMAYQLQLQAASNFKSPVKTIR
T9 sequence (P06213 1005-1310 limits assumed): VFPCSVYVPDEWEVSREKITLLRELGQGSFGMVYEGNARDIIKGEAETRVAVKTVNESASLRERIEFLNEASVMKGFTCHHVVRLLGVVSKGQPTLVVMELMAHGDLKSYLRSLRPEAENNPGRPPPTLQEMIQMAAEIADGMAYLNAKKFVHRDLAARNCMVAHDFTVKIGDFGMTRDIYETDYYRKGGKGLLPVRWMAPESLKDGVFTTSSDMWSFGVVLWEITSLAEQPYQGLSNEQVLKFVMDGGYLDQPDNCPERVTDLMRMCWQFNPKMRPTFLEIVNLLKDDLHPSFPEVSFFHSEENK
T25 sequence (P36888 27-993): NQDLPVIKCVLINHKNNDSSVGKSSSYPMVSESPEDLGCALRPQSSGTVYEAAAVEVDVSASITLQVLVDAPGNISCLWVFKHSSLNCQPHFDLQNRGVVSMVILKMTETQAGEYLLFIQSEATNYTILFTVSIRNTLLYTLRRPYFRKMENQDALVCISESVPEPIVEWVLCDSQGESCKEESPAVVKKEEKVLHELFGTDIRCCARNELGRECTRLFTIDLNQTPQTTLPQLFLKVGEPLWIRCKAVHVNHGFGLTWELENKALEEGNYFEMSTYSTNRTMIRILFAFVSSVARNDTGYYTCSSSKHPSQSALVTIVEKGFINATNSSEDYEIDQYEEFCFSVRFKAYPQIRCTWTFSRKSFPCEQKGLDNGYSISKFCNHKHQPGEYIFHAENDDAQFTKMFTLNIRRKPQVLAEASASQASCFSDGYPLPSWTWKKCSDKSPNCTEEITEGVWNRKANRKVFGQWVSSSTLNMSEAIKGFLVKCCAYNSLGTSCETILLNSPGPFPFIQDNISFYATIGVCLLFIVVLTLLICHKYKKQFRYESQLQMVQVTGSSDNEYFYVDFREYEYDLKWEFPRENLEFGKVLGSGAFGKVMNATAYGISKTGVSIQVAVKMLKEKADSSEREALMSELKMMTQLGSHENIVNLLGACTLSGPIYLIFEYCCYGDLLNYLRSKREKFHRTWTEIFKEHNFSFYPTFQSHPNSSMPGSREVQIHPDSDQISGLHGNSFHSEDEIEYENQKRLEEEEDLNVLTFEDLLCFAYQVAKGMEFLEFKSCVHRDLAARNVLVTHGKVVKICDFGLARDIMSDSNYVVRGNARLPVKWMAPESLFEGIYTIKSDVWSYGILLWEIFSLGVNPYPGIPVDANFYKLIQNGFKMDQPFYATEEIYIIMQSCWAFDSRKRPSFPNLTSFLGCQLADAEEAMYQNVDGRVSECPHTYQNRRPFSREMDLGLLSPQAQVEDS
T18 sequence (P11309 whole entry): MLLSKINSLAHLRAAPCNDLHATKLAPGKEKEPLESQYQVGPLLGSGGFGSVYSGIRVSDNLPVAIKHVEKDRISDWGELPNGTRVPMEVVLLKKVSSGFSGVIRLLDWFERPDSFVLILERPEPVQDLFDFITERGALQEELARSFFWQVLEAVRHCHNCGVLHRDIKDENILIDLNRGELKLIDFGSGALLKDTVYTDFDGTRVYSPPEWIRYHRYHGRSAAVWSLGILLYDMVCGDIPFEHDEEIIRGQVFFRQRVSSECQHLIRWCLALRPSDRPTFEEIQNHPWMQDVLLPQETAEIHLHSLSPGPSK

Avg POC [1]: 102.5 POC
Avg POC [2]: 111 POC
Avg POC [3]: 132 POC
Avg POC [4]: 120.5 POC
Avg POC [5]: 117.5 POC
Avg POC [6]: 92.5 POC
Avg POC [7]: 134 POC
Avg POC [8]: 92 POC
Avg POC [9]: 113.5 POC
Avg POC [10]: 98 POC
Avg POC [11]: 114 POC
Avg POC [12]: 115.5 POC
Avg POC [13]: 95 POC
Avg POC [14]: 113 POC
Avg POC [15]: 103 POC
Avg POC [16]: 104.5 POC
Avg POC [17]: 112 POC
Avg POC [18]: 109.5 POC
Avg POC [19]: 95 POC
Avg POC [20]: 134.5 POC
Avg POC [21]: 132.5 POC
Avg POC [22]: 127 POC
Avg POC [23]: 112.5 POC
Avg POC [24]: 116.5 POC
Avg POC [25]: 98 POC
Avg POC [26]: 99 POC
Avg POC [27]: 113 POC
Avg POC [28]: 115 POC
Avg POC [29]: 120 POC
Avg POC [30]: 143.5 POC
Avg POC [31]: 118 POC
Avg POC [32]: 151.5 POC
Avg POC [33]: 132.5 POC
Avg POC [34]: 99 POC
Avg POC [35]: 132.5 POC
Avg POC [36]: 109 POC
Avg POC [37]: 126 POC
Avg POC [38]: 142.5 POC
Avg POC [39]: 102 POC
Avg POC [40]: 117 POC
Avg POC [41]: 130 POC
Compound: Cc1c(-c2cnn(C)c2)nn(-c2ccccc2)c1NC(=O)Nc1sc(C(F)(F)F)nc1-c1ccccc1 [Example 2, 1-(1′,4-dimethyl-1-phenyl-1H,1′H-[3,4′-bipyrazol]-5-yl)-3-(4-phenyl-2-(trifluoromethyl)thiazol-5-yl)urea]
